Test results taken from US5780675A, “Deoxygossylic compounds” (The University of New Mexico, priority 1995, dated 1998).
“Also recorded” adds a separate entry of the source. Where two headings read alike, the source gives them in different places.

Assays:
[1] = system: H9/HIV-IIIB strain of the HIV-1 virus; test: Inhibition of HIV replication, focal immunoassay (foci reduction) in HT46c cells; format: cell-based; settings: for reduction in foci (in words): 5 μM, GIL and BDGA compared; for EC50: Human immunodeficiency virus 1, 72 h, 3 days at 37° C.; for EC50 / anti-HIV activity (in words): H9/HIV-IIIB in HT46c cells; for anti-HIV activity (in words): in vitro, compared with BDGA and/or GIL where stated
Description: 1,1'-bisdeoxygossypol (BDG), 1,1'-bisdeoxygossylic acid (BDGA), 8-deoxyhemigossypol (DHG) and 8-deoxyhemigossylic acid (DHGA) were synthesized and tested for their ability to inhibit the replication of HIV in vitro. The EC50 for BDGA was <1 μM and its threshold cytotoxicity was approximately 20 μM. […] Like BDGA, the Ec50 for GIL was <1 μM. […] BDG, on the other hand, was ineffective at 1 μM and destroyed >80% of the cell monolayer at 5 μM.
The anti-HIV assay used was based on a published procedure (J. Virol. 62:3779-3788, 1988) using HT46c (HeLaT4+) cells as host cells for the H9/HIV-IIIB strain of the HIV-1 virus. The cells were seeded into 6-well plates, 5×10^4 cells/well, in RPMI 1640 with 10% FBS and allowed to attach overnight. After treatment of the wells with DEAE-dextran, stock virus was added at a concentration that produces 100-200 foci/well on day 3 in positive control wells. Test compounds were added, and plates incubated for 3 days at 37° C., 5% CO2. Monolayers were fixed with methanol and wells analyzed with a focal immunoassay (FIA). The primary reagent used in the FIA was a polyclonal antibody preparation of sera from AIDS patients. The secondary reagent was a goat anti-human IgG antibody tagged with horseradish peroxidase. The substrate was 3-amino-9-ethylcarbazole in sodium acetate buffer with hydrogen peroxide. Each compound was tested at concentrations of 0.01, 0.1, 1.0, 5.0 and 20 μM. GIL was tested as a standard for comparison.

[2] = previous or background findings; GIL compared with gossypol; cited from earlier work
HT46c (HeLaT4+) cells = test: Cytotoxicity: changes in cell morphology or loss of monolayer adherence in HT46c cells; format: cell-based; settings: for toxicity (in words): 5.0 μM; for cytotoxicity (in words): HT46c cells, compared with BDGA and/or GIL where stated
HIV = settings: previously found, in vitro, similar assays; cited from earlier work
human serum albumin [3] = target: T1, human serum albumin (Homo sapiens, UniProt P02768); test: Binding to human serum albumin, fluorescence quenching titration; settings: 25° C., pH 7.4, read-out: Dissociation constant (Kd) for binding to human serum albumin
Description: Table I below lists the dissociation constants (Kds) for binding of compounds 1-6 to human serum albumin. The Kd for gossypol was determined by multiple methods as reported in FEBS Lett. 157:28-30, 1983. The Kds for compounds 2-6 were determined by fluorescence quenching titrations.
These experiments were carried out at 25° C. in 2 mL volumes of 0.2M potassium phosphate buffer (pH 7.4) containing 0.1M sodium chloride. Aliquots of a 1 mM stock solution of test compound in DMSO were added to a 10 μM solution of human serum albumin in the buffer. Fluorescence was measured with a Perkin Elmer model LS 50 luminescence spectrometer. The Kds were determined by plotting the reciprocal of free ligand concentration versus the reciprocal of fractional quenching. This plot provides -1/Kd as the x-intercept. Details of the calculations employed are set forth in J. Pharm. Sci. 77:237-240 (1988).

[4] = Cytotoxicity: changes in cell morphology or loss of monolayer adherence in HT46c cells; format: cell-based; settings: human; for MCC at 72 h: HT46c cells, 3 days, lowest concentration with detectable morphology change or loss of monolayer adherence, read-out: threshold cytotoxicity
human serum albumin [5] = target: T1, human serum albumin; settings: gossypol, determined by multiple methods as reported in FEBS Lett. 157:28-30, 1983; read-out: Dissociation constant (Kd) for binding to human serum albumin; cited from earlier work

T1 sequence (P02768 25-609): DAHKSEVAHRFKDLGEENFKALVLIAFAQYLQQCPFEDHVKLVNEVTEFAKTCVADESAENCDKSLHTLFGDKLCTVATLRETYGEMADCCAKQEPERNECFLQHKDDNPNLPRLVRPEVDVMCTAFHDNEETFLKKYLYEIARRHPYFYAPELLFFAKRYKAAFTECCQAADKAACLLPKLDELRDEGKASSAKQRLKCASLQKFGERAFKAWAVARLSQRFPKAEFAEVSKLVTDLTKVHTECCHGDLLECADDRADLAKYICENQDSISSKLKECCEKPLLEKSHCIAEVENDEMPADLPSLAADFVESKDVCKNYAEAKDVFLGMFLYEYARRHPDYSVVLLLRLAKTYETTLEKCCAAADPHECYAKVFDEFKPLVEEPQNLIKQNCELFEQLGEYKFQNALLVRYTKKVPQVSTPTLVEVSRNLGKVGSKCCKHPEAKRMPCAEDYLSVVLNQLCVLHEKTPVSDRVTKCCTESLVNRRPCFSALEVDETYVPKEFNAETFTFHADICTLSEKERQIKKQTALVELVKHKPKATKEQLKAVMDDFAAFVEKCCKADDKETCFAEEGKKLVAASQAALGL

Cc1cc2c(C(C)C)c(O)c(O)c3c2c(c1-c1c(C)cc2c(C(C)C)c(O)c(O)c4c2c1OC4=N)OC3=N [GIL, reference compound]
reduction in foci (in words) [1]: same reduction in foci | EC50 [1]: < 1 µM | cytotoxicity (in words), previous findings [2]: less cytotoxic than gossypol | toxicity (in words) (HT46c (HeLaT4+) cells): No toxicity was noted | anti-HIV activity relative to gossypol (in words) (HIV): more active; also recorded: more effective than gossypol | Kd (human serum albumin [3]): 3 µM

Cc1ccc2c(C=O)c(O)c(O)c(C(C)C)c2c1 [DHG, 2,3-dihydroxy-6-methyl-4-(1-methylethyl)-1-naphthaldehyde]
anti-HIV activity (in words) [1]: some anti-HIV activity; also recorded: less active | MCC at 72 h [4]: 5 µM | cytotoxicity (in words) (HT46c (HeLaT4+) cells): more cytotoxic | Kd (human serum albumin [3]): 0.66 µM

Cc1cc2c(C(C)C)c(O)c(O)c(C=O)c2cc1-c1cc2c(C=O)c(O)c(O)c(C(C)C)c2cc1C [BDG, 6,6',7,7'-Tetrahydroxy-3,3'-dimethyl-5,5'-bis(1-methylethyl) [2,2'-binaphthalene]-8,8'-dicarboxaldehyde]
anti-HIV effect (in words) ([1]; 1 μM): ineffective | anti-HIV activity (in words) [1]: less effective against HIV | cytotoxicity at 5 µM ([4]; ht46c cells, 5 μM, read-out: cell monolayer destroyed): > 80% | cytotoxicity (in words) (HT46c (HeLaT4+) cells): much more cytotoxic than BDGA | Kd (human serum albumin [3]): 1.2 µM

Cc1ccc2c(C(=O)O)c(O)c(O)c(C(C)C)c2c1 [DHGA, 2,3-dihydroxy-6-methyl-4-(1-methylethyl)-1-naphthoic Acid]
effect on viral replication (in words) ([1]; even at 20 μM): no observable effect on viral replication | anti-HIV activity (in words) [1]: ineffective against HIV | cytotoxicity (in words) (HT46c (HeLaT4+) cells): very low cytotoxicity | effect on cell morphology (in words) (HT46c (HeLaT4+) cells; even at 20 μM): no observable effect on viral replication or cell morphology | Kd (human serum albumin [3]): 5.28 µM

Cc1cc2c(C(C)C)c(O)c(O)c(C(=O)O)c2cc1-c1cc2c(C(=O)O)c(O)c(O)c(C(C)C)c2cc1C [BDGA, 6,6',7,7'-Tetrahydroxy-3,3'-dimethyl-5,5'-bis(1-methylethyl) [2,2'-binaphthalene]-8,8'-dicarboxylic Acid]
reduction in foci (in words) [1]: same reduction in foci | EC50 [1]: < 1 µM | anti-HIV activity (in words) [1]: approximately as effective as GIL | MCC at 72 h [4]: ~20 µM | toxicity (in words) (HT46c (HeLaT4+) cells): No toxicity was noted | monolayer destruction (in words) (HT46c (HeLaT4+) cells; 20 μM): Some signs of monolayer destruction | Kd (human serum albumin [3]): 1.5 µM

Cc1cc2c(C(C)C)c(O)c(O)c(C=O)c2c(O)c1-c1c(C)cc2c(C(C)C)c(O)c(O)c(C=O)c2c1O [gossypol]
cytotoxicity (in words), previous findings [2]: significantly cytotoxic at effective dosage levels | Kd (human serum albumin [5]): 0.09 µM
